{
  "source": "patent US20210100859A1",
  "about": "“HERPES SIMPLEX VIRUS (HSV) ANTICANCER THERAPIES” (priority 2019, published 2021)",
  "key": {"TR127 cells": {"tested_on": "TR127 cells", "experiment": "Virus spread: GFP+ RAMBO infected cells by flow cytometry", "type": "cell-based, human", "conditions": "TR127, RAMBO MOI=0.1 1 hr then CP 2 μM 16 hr; presence vs absence of CP", "method": "FIGS. 1A-1J: RAMBO increases cisplatin accumulation in cisplatin-resistant ovarian cancer cells. (FIG. 1A) Representative histogram (left) and quantification (right) of percentage of GFP^+ infected cisplatin resistant ovarian cancer cells. TR127 cells infected with RAMBO (MOI=0.1) for 1 hr and then treated with CP (2 μM) for 16 hr. Data shown are mean percentage of GFP^+ RAMBO infected TR127 cells (±s.d) analyzed by flow cytometry (n=3/group). (FIG. 1B) Quantification of intracellular CP retained inside platin resistant OC cells treated with/without RAMBO. OVCAR8, TR127 and TR182 were treated with/without RAMBO (MOI=0.1) for one hour and then incubated with 2.5 μM Texas-red labeled CP. Twenty-four hours post-infection CP accumulation in cells was analyzed by flow cytometry. Data shown are mean fluorescence intensity (MFI) of Texas-red labeled CP (±s.d., n=3/group). […] Briefly, RNA harvested from OVTOKO cells treated with RAMBO (MOI=1) for 16 hr was analyzed by RNAseq. […] (FIG. 1I) Quantification of Texas-red labeled CP accumulation in TR127 cells knocked down for either ATP7B, ATP11B, or both was analyzed by flow cytometry (n=3/group). (FIG. 1J) Quantification of Texas-red labeled CP accumulation in OVTOKO cells overexpressing (OE) both ATP11B and ATP7B, or control (Ctl). Cells were analyzed by flow cytometry. […]"}, "ATP11B and ATP7B": {"tested_on": "ATP11B and ATP7B", "experiment": "Western blot of efflux proteins", "type": "cell-based, human", "conditions": "TR127 and TR182 cells treated with RAMBO and/or CP"}},
  "data": [
    {"smiles": "N.N.[Cl][Pt][Cl]", "note": "[CP, cisplatin]", "values": [
      {"measurement": "GFP expression (GFP positive tumor cells as indicator of infection)", "setting": "TR127 cells", "value": "no difference"},
      {"measurement": "protein expression of ATP11B and ATP7B", "setting": "ATP11B and ATP7B", "value": "no effect"}
    ]}
  ]
}
